System: p53
Experiment: p53 induction by Western blot
Format: cell-based
Conditions: sign of DNA damage
Experimental: The extraction of total cell lysates and western blot were performed according to standard procedure. The antibodies used for immunoblotting were: p53 (sc-126, Santa Cruz Biotechnology), γH2AX (#07-164, Millipore), TrxRl 19A1 (AbFrontier). Anti-β-actin monoclonal antibody (Millipore) was used as loading control. The horseradish peroxidase-coupled secondary antibodies (Jackson ImmunoResearch) and SuperSignal™ West Dura Extended Duration Substrate detection system (Thermo Fischer Scientific), and images were visualized using ChemiDoc Imaging System (Bio-Rad).
The majority of chemotherapeutic drugs used currently in the clinic, are DNA damaging drugs. Induction of DNA damage is a very efficient way of elimination of cancer cells. Unfortunately, these drugs induce DNA damage also in normal cells, leading to severe side effects. We addressed the question whether 1d*HCl induces DNA damage. We tested this by detection of a hallmark of DNA damage, induction of phosphorylated histone H2AX, so called γH2AX. We used anti-yH2AX antibody to detect it in cells treated with 1d*HCl.

## Cl.N#Cc1c(-c2cccnc2)[n+]([O-])c2cc(F)c(N3CCOCC3)cc2[n+]1[O-] [1d*HCl, 6-Fluoro-7-(morpholin-4-yl)-3-(pyridin-3-yl)quinoxaline-2-carbonitrile-1,4-dioxide hydrochloride]
  induction of p53: did not detect a significant induction of p53
